These results are taken from article PMC10482942, “Novel quinazoline-1,2,3-triazole hybrids with anticancer and MET kinase targeting properties” (Scientific Reports, 2023).

Broadly, the inhibition is the share of the control response that was lost under treatment. Low values mean a response near the control, high ones a response far below the control. The IC50 is the concentration that gives 50% inhibition. As a reminder, the melting point is the temperature of the solid-liquid transition.

The target of one data set is T1, CDK4/cyclinD3 (h) (Homo sapiens, UniProt P11802).
T1 construct: purchased Eurofins Discovery
As to the kind of experiment: Radiometric kinase panel assay. Conditions: Km ATP. The class given is biochemical.

The target of the next data set is T2, MTOR (h) (Homo sapiens, UniProt P42345).
T2 construct: purchased Eurofins Discovery
The data set can be described thus: Radiometric kinase panel assay. The class given is biochemical. Conditions: Km ATP.

Another data set deals with T3, MAPK1 (h) (Homo sapiens, UniProt P27361).
T3 construct: purchased Eurofins Discovery
The data set can be described thus: Radiometric kinase panel assay. The class given is biochemical. Conditions: Km ATP.

Another data set has as its target T4, AXL (h) (Homo sapiens, UniProt P30530).
T4 construct: purchased Eurofins Discovery
As to the kind of experiment: Radiometric kinase panel assay. Conditions: Km ATP. The class given is biochemical.

A further data set addresses T5, RET (h) (Homo sapiens, UniProt P07949).
T5 construct: purchased Eurofins Discovery
As to the kind of experiment: Radiometric kinase panel assay. Conditions: Km ATP. The class given is biochemical.

Another data set concerns the target T6, PDGFRA (h) (Homo sapiens, UniProt P16234).
T6 construct: purchased Eurofins Discovery
As to the kind of experiment: Radiometric kinase panel assay and dose-response. Particulars: for inhibition at 10 µM: radiometric assay, Km ATP. The class given is biochemical. The procedure: Moreover, a dose–response analysis was performed at six concentrations to determine the activity of compound 8c against PDGFRA kinase, and IC50 value was estimated by curve fitting. The tests were performed by Eurofins Discovery (https://www.eurofinsdiscovery.com).

The next data set addresses T7, FLT1 (h) (Homo sapiens, UniProt P17948).
T7 construct: purchased Eurofins Discovery
As to the kind of experiment: Radiometric kinase panel assay. Particulars: Km ATP. The class given is biochemical.

Another data set deals with T8, EGFR (h) (Homo sapiens, UniProt P00533).
T8 construct: purchased Eurofins Discovery
The data set can be described thus: Radiometric kinase panel assay. The class given is biochemical. Particulars: Km ATP.

The next data set has as its system AsPC-1 spheroids. The data set can be described thus: Three-dimensional spheroid growth inhibition, APH assay. The class given is cell-based, human. Conditions: for Circularity and solidity of spheroids: AsPC-1 spheroids, after 72 h of treatment, ImageJ; for IC50: Homo sapiens, ASPC1, APH assay, 72 h treatment, read-out: IC50 in AsPC-1 three-dimensional spheroid model. As to the method: Three-dimensional spheroid cell cultures were produced based on the liquid overlay technique. Agarose solution in RPMI (1.5% w/v) was prepared and sterilized in an autoclave. Then, each well of 96-well flat-bottom plates was coated with 50 µl of agarose solution and was left to solidify at room temperature for at least 2 h. One hundred twenty-five µl of a suspension of AsPC-1 cells in RPMI medium containing 10% FBS at a density of 2 × 10^5 cells/ml was added to each well. Afterwards, the plates were centrifuged at 700g for 5 min and incubated under standard culture conditions. After 48 h of incubation, which allowed one spheroid to be formed in each well, 100 µl of the medium was removed, and spheroids were treated with synthesized derivatives diluted in a fresh medium containing 10% FBS for 72 h.
At the final step, cell viability was measured by the acid phosphatase (APH) assay, which is based on the hydrolysis of the p-nitrophenyl phosphate (pNPP) and its conversion to yellow p-nitrophenol by intracellular acid phosphatases present in viable cells. Briefly, 160 µl of the medium was removed and 200 µl of a solution containing 2 mg/ml pNPP dissolved in 0.1 M sodium acetate at pH 4.8 were added to each well and incubated for 120 min at 37 °C. Afterwards, 10 µl of NaOH 1 M was added to each well to stop the reaction, and the absorbance was recorded at 405 nm within 10 min by a Bio-Tek microplate reader (Model Synergy HTX). The images of spheroids were recorded by a bright field microscope (Nikon model DS-Ri2) and analyzed with Nikon NIS-Elements AR imaging software for Windows version 4.30.

Data set [1] has as its system MET phosphorylation in AsPC-1 cells. The data set can be described thus: MET phosphorylation by western blot analysis. The class given is cell-based, human. Conditions: 10 and 25 μM, 3 h. The procedure: The effect of synthetic compounds on MET phosphorylation in AsPC-1 cells was investigated by western blot analysis. At first, the AsPC-1 cells were seeded in 6-well plates at a density of 250,000 cells/ml and incubated at 37 °C for 24 h. The cultured cells were then treated with the synthetic compounds at different concentrations for 3 h. Then, the cells were harvested via addition of ice-cold RIPA lysis buffer (20 mM Tris base, 150 mM NaCl, 1% Np40, 1 mM EDTA, […] and 0.1% SDS, pH 8.0) containing […] (PMSF; SigmaAldrich), 10 mM Na4O7P2 and 2 mM Na3VO4 and by use of scrapers. Also, PMSF and a protease inhibitor cocktail (Roche) were added to the extraction buffer to prevent the breakdown of the proteins. […] Protein contents of the cell extracts were measured by a bicinchoninic acid protein assay kit (Quanti-Pro BCA, Sigma–Aldrich, St. Louis, USA) using bovine serum albumin as the protein standard. […] Proteins were then detected by incubation with specific primary antibodies, rabbit monoclonal anti-p-MET (dilution 1:1000, catalogue number: 3126, Cell Signaling, Danvers, MA), and rabbit monoclonal anti-MET (dilution 1:1000, catalogue number: 4560, Cell Signaling, Danvers, MA) overnight at 4 °C. […] The band intensities were calculated with the software Gene Tools (SyneGene, Cambridge, UK) for Windows.
Background: A western blot detects proteins with antibodies after separation by electrophoresis.

The target of another data set is T9, FMS (h) (Homo sapiens, UniProt P07333).
T9 construct: purchased Eurofins Discovery
The data set can be described thus: Radiometric kinase panel assay. Conditions: Km ATP. The class given is biochemical.

The target of the next data set is T10, AKT2 (h) (Homo sapiens, UniProt P31751).
T10 construct: purchased Eurofins Discovery
The data set can be described thus: Radiometric kinase panel assay. The class given is biochemical. Particulars: Km ATP.

The target in a further data set is T11, MAPK2 (m) (Mus musculus, UniProt P63085).
T11 construct: purchased Eurofins Discovery
As to the kind of experiment: Radiometric kinase panel assay. The class given is biochemical. Conditions: Km ATP.

In the next data set the target is T12, PDGFRB (h) (Homo sapiens, UniProt P09619).
T12 construct: purchased Eurofins Discovery
The data set can be described thus: Radiometric kinase panel assay. The class given is biochemical. Conditions: Km ATP.

T6 sequence (P16234 24-1089): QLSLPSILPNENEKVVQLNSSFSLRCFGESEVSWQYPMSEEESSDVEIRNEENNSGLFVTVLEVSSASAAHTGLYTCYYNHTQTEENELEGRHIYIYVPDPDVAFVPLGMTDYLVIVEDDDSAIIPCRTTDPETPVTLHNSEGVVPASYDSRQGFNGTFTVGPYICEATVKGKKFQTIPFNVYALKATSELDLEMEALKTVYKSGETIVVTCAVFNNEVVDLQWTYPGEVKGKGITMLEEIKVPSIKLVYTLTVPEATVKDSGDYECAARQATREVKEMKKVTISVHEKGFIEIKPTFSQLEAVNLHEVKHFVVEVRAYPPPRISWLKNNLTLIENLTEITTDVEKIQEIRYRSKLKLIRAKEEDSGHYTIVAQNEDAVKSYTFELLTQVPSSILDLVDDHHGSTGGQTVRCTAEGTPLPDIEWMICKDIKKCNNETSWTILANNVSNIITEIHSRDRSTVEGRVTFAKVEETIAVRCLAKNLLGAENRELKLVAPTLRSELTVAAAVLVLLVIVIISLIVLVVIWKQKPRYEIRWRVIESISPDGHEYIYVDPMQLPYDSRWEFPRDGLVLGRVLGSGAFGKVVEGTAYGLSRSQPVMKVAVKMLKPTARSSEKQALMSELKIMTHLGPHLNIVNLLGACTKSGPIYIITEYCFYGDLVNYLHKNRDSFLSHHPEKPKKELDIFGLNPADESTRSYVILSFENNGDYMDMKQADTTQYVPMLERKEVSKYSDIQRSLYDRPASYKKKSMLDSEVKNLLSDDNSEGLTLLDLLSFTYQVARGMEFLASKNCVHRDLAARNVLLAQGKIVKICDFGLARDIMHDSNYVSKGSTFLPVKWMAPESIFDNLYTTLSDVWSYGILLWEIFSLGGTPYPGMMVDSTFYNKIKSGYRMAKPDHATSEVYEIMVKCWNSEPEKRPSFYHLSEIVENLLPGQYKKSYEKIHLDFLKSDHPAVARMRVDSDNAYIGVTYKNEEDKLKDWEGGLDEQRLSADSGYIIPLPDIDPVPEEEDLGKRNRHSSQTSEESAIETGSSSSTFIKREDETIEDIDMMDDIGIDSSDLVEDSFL
T5 sequence (P07949 29-1114): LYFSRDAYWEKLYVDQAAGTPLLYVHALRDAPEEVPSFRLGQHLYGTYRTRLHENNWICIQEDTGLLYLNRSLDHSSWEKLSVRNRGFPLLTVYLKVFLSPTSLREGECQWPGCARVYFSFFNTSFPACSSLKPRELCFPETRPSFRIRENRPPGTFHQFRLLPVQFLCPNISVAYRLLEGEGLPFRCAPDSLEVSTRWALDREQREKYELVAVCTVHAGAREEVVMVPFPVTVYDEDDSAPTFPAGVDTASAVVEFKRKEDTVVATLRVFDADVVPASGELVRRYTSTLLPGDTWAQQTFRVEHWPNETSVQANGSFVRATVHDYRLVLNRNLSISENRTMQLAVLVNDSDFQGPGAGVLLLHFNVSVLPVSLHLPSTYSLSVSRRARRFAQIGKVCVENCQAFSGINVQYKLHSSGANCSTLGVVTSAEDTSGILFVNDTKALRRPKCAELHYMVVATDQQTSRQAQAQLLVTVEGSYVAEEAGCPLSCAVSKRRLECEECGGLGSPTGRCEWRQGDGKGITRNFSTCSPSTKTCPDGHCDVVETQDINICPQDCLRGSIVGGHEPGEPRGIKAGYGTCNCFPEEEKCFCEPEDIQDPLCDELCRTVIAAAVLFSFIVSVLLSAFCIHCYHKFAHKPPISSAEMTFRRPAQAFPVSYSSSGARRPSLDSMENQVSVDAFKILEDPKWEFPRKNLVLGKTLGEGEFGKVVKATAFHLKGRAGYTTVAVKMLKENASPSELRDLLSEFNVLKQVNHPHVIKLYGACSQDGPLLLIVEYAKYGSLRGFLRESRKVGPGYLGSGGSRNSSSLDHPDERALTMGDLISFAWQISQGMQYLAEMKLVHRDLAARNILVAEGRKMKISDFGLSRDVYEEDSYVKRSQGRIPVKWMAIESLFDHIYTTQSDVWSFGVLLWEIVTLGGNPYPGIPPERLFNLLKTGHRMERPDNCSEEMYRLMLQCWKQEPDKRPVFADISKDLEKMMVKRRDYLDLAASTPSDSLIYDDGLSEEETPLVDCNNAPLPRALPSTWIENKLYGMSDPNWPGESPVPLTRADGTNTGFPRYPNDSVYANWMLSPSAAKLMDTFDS
T4 sequence (P30530 26-894): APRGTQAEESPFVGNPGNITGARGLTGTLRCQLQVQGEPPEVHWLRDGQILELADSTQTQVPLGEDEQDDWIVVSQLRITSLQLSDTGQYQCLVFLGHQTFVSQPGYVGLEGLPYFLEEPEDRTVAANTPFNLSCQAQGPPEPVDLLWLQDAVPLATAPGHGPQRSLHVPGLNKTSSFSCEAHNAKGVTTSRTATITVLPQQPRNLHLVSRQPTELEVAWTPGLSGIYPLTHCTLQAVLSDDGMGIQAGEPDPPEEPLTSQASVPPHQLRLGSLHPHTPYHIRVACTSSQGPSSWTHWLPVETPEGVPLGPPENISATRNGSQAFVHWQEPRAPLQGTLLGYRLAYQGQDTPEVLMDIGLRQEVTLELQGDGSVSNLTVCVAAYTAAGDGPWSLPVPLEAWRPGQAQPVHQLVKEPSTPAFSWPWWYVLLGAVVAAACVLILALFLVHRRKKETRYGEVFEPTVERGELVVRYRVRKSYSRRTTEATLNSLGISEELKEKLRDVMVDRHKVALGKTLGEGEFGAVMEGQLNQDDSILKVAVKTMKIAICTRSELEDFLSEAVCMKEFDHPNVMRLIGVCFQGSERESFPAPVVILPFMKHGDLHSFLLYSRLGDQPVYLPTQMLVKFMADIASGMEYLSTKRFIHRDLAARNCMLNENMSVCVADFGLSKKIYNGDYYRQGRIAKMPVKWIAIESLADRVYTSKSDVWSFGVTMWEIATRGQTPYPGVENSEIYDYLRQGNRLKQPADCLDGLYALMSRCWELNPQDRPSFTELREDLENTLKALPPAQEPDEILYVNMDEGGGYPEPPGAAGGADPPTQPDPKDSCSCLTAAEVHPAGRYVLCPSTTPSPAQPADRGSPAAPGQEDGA
T10 sequence (P31751 whole entry): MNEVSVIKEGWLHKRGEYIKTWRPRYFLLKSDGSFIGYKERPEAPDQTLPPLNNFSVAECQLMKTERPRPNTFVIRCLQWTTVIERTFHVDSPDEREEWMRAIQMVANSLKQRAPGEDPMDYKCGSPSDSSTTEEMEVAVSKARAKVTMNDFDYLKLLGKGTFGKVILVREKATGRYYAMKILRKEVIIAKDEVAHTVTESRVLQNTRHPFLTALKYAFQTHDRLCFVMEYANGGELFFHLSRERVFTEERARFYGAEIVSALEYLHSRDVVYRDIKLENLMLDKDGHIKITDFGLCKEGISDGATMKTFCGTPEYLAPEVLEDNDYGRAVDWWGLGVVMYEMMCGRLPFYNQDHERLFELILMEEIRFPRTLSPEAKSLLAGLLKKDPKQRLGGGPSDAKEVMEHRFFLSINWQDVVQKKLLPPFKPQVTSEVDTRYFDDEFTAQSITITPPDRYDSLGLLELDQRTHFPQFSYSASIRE
T11 sequence (P63085 whole entry): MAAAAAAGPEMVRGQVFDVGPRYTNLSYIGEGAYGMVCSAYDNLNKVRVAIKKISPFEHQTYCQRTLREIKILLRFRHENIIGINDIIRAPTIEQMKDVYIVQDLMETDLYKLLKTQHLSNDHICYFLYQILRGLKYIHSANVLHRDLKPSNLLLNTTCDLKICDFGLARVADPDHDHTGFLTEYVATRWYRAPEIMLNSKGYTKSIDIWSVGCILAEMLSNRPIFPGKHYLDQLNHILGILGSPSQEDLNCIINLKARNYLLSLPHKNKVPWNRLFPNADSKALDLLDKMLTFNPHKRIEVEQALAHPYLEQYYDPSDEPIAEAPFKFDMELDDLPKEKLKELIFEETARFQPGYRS
T1 sequence (P11802 whole entry): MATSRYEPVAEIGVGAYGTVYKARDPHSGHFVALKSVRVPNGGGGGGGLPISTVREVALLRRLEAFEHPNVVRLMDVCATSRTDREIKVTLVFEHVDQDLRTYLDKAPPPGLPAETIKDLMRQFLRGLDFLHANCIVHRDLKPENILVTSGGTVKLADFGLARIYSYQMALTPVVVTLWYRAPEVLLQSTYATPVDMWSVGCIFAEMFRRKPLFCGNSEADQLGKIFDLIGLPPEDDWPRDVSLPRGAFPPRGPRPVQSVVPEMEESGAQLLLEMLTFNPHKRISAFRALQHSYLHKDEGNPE
T1 sequence (P30281 whole entry partner): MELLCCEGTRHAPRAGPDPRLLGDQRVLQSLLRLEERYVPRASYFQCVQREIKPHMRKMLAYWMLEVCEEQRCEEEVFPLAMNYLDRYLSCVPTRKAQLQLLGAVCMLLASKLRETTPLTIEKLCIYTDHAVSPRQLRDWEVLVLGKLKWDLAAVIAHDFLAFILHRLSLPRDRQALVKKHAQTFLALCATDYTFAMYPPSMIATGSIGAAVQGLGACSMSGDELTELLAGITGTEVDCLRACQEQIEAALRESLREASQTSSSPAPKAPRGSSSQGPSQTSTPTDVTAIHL
T3 sequence (P27361 whole entry): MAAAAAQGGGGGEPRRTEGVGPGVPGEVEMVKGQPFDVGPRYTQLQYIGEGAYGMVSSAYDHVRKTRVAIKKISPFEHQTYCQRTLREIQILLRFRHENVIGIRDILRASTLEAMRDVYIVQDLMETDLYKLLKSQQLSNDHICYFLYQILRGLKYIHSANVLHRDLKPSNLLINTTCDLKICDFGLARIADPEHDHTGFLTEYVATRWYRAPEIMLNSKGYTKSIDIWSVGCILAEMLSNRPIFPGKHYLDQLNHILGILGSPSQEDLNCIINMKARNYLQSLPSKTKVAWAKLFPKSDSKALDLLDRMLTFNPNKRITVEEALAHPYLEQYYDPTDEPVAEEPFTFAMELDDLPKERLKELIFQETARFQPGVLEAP

Take `Cc1ccc(Cn2cc(COc3ccc(C=NNc4ncnc5ccccc45)cc3)nn2)cc1` [Compound 8c, 2-(4-((1-(4-Methylbenzyl)-1H-1,2,3-triazol-4-yl)methoxy)benzylidene)-1-(quinazolin-4-yl)hydrazine]: the inhibition at 10 µM worked out at 2% against CDK4/cyclinD3 (h); 3% against MTOR (h); 5% on MAPK1 (h); 12% against AXL (h); 10% against RET (h); 58% against PDGFRA (h). The results for the inhibition at 10 µM on FLT1 (h) and at EGFR (h) were 2% and 8%, respectively. In addition, the IC50 turned out to be 7.1 µM on PDGFRA (h) (dose-response at six concentrations, curve fitting, read-out: PDGFRA kinase inhibition IC50) and 32.7 ± 7.2 µM in the data set on AsPC-1 spheroids. Besides, the “Circularity and solidity of spheroids” value in the data set on AsPC-1 spheroids is listed as “significant reduction”. In [1], the “Effect on MET phosphorylation” value was “significant suppression of MET phosphorylation”.
Turning to `CC(C)(C)c1ccc(Cn2cc(COc3ccc(C=NNc4ncnc5ccccc45)cc3)nn2)cc1` [Compound 8h, 2-(4-((1-(4-Tert-butylbenzyl)-1H-1,2,3-triazol-4-yl)methoxy)benzylidene)-1-(quinazolin-4-yl)hydrazine], the melting point stood at 205.4 °C. In addition, testing at 10 µM on FMS (h) gave an inhibition of 0%. For the same compound, on AKT2 (h), the inhibition at 10 µM worked out at 18%. The compound further had an inhibition at 10 µM at PDGFRA (h) of 46%. Also, in the data set on AsPC-1 spheroids, the “Circularity and solidity of spheroids” value was “significant reduction”; the IC50 amounted to 36.6 ± 4.5 µM. For the same compound, on MAPK2 (m), the inhibition at 10 µM was determined as 7%. This compound also displayed an inhibition at 10 µM on PDGFRB (h) of 7%.
